Data published in patent publication US6967196B1, “Sulfonamide compounds and uses thereof” (Bristol-Myers Squibb Company, priority 1999, dated 2005).
Structures can show the parent of a compound that is named as a salt. Where two headings read alike, the source gives them in different places.

Tested on: amyloid β production in transfected H4 (human neuroglioma) cells stably expressing APP constructs
Experiment: In vitro cell-based assay of inhibitors of amyloid β production (ELISA)
Settings: amyloid β in medium by ELISA, read-out: ACTIVITY (IC50, inhibition of amyloid β production)
Procedure, shortened: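 Plate wt/variant APP cells; ≥6 h later swap to medium + compound (10-100 μM screen); incubate ~16 h; sample medium; Aβ ELISA with C-terminal capture / N-terminal detection Abs; quantify vs Aβ standard curve.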

[1] = Homo sapiens, 16 h, transfected H4 cells stably expressing APP, approximately 16 hours incubation
[2] = transfected H4 cells stably expressing APP, approx. 16 h incubation
[3] = transfected H4 cells stably expressing APP, approximately 16 hours incubation
[4] = Homo sapiens, 16 h, transfected H4 cells stably expressing APP constructs, approximately 16 hours incubation
[5] = transfected H4 cells stably expressing APP constructs, approximately 16 hours incubation
[6] = transfected H4 cells stably expressing APP, approximately 16 hours incubation, Table B

Molecule: O=C(c1ccc(I)cc1)N1CCCCC1CCOc1ccccc1CN(c1cc(F)ccc1F)S(=O)(=O)c1ccc(Cl)cc1 (stereo not drawn) [Example 901, 4-chloro-N-(2,5-difluorophenyl)-N-(2-{2-[1-(4-iodobenzoyl)-2-piperidinyl]ethoxy}benzyl)benzenesulfonamide]
- IC50 [1]: > 0.5 µM

Molecule: 2-({[(4-chlorophenyl)sulfonyl]-2,5-difluoroanilino}methyl)phenyl acrylate [Example 681]
- IC50 [2]: 0.1 to 0.5 µM

Molecule: (2E)-3-[2-({[(4-chlorophenyl)sulfonyl]anilino}methyl)phenyl]-2-propenoic acid [Example 1035]
- IC50 [3]: > 0.5 µM

Molecule: CN1CCCCC1CCOc1ccccc1CN(c1ccccc1)S(=O)(=O)c1ccc(Cl)cc1 (stereo not drawn) [Example 889, 4-chloro-N-{2-[2-(1-methyl-2-piperidinyl)ethoxy]benzyl}-N-phenylbenzenesulfonamide hydrochloride]
- IC50 [1]: > 0.5 µM

Molecule: Cc1cccc(C(=O)N2CCCCC2CCOc2ccccc2CN(c2cc(F)ccc2F)S(=O)(=O)c2ccc(Cl)cc2)c1 (stereo not drawn) [Example 860, 4-chloro-N-(2,5-difluorophenyl)-N-(2-{2-[1-(3-methylbenzoyl)-2-piperidinyl]ethoxy}benzyl)benzenesulfonamide]
- IC50 [1]: 0.1 to 0.5 µM

Molecule: C[C@H](CCCS(=O)(=O)N1CCOCC1)N(c1cc(Cl)ccc1Cl)S(=O)(=O)c1ccc(Cl)cc1 [Example 1209, 4-chloro-N-[2,5-dichlorophenyl]-N-[4-[(4-morpholinyl)sulfonyl]-1(R)-methylbutyl]benzenesulfonamide]
- IC50 [4]: ≤ 0.025 µM

Molecule: N-{3-[2-(1-{[(4-chlorophenyl)sulfonyl]-2,5-difluoroanilino}ethyl)phenoxy]propyl}-N-methyl-4-(trifluoromethoxy)benzamide [Example 770]
- IC50 [2]: 0.1 to 0.5 µM

Molecule: COC(=O)[C@@H](NC(=O)CCCC[C@@H](C)N(c1cc(Cl)ccc1F)S(=O)(=O)c1ccc(Cl)cc1)C(C)C [Example 1261, (R)-4-Chloro-N-(5-chloro-2-fluorophenyl)-N-[6-[N-(S)-[1-(methoxycarbonyl)-2-methylpropyl]amino]-1-methyl-6-oxohexyl]benzenesulfonamide]
- IC50 [5]: ≤ 0.025 µM

Molecule: O=S(=O)(c1ccc(Cl)cc1)N(Cc1ccccc1OCCCN1CCCCC1)CC1CCC1 [Example 827, 4-chloro-N-(cyclobutylmethyl)-N-{2-[3-(1-piperidinyl)propoxy]benzyl}benzenesulfonamide hydrochloride]
- IC50 [1]: 0.1 to 0.5 µM

Molecule: CC(c1ccccc1OCCCC(=O)O)N(c1cc(F)ccc1F)S(=O)(=O)c1ccc(Cl)cc1 (stereo not drawn) [Example 377, 4-[2-(1-{[(4-Chlorophenyl)sulfonyl]-2,5-difluoroanilino}ethyl)phenoxy]butanoic Acid]
- IC50 [6]: 0.05 to 0.1 µM

Molecule: 4-chloro-N-(2,5-difluorophenyl)-N-((1R)-1-{2-[3-(1H-imidazol-1-yl)propoxy]-6-methoxybenzyl}benzenesulfonamide hydrochloride [Example 911]
- IC50 [3]: > 0.5 µM

Molecule: C[C@H](CCCNC(=O)OC(C)(C)C)N(c1cc(Cl)ccc1Cl)S(=O)(=O)c1ccc(Cl)cc1 [Example 1145, 4-chloro-N-(2,5-dichlorophenyl)-N-[4-[[(1,1-dimethylethoxy)carbonyl]amino]-1-methylbutyl]benzenesulfonamide]
- IC50 [4]: 0.1 to 0.5 µM

Molecule: C[N+]1(CCCOc2ccccc2CN(c2cc(Cl)ccc2Cl)S(=O)(=O)c2ccc(Cl)cc2)CCCCC1 [Example 513, 1-{3-[2-({2,5-dichloro[(4-chlorophenyl)sulfonyl]anilino}methyl)phenoxy]propyl}-1-methylpiperidinium Iodide]
- IC50 [6]: 0.1 to 0.5 µM

Molecule: CC(=O)NCCC[C@@H](C)N(c1cc(Cl)ccc1Cl)S(=O)(=O)c1ccc(Cl)cc1 [Example 1113, 4-chloro-N-(2,5-dichlorophenyl)-N-[4-(acetylamino)-1(R)-methylbutyl]benzenesulfonamide]
- IC50 [4]: 0.025 to 0.05 µM

Molecule: C[C@H](CCCCN1CCC(S(C)(=O)=O)C1)N(c1cc(Cl)ccc1Cl)S(=O)(=O)c1ccc(Cl)cc1 (stereo partly drawn) [Example 1112, 4-chloro-N-(2,5-dichlorophenyl)-N-[5-[(3-methylsulfonyl)-1-pyrrolidinyl]-1(R)-methylpentyl]benzenesulfonamide]
- IC50 [5]: 0.025 to 0.05 µM
